Results on seven molecules are retold here after US20240376124A1, “Macrocyclic Kinase Inhibitors” (Incyte Corporation, priority 2023, published 2024).

pIC50: −log10 of the molar value. “And” between values parts separate entries of the source, which are not always exact repeats. Equal entries are not always repeated. Some results are limits rather than exact numbers.

Experiment [1] addresses T1, catalytic domain (JH1, amino acids 826-1132) of human JAK2 (Homo sapiens, UniProt O60674).
T1 construct: catalytic domain (JH1, amino acids 826-1132) of human JAK2; FLAG (N); purchased Carna Biosciences 08-445-20N; host or cells: baculovirus expression system
The experiment is described as follows: JAK2 LanthaScreen JH1 binding assay. The settings on record: JAK2 JH1, 50 nM tracer; read-out: JH1BIND IC50. The method, then: Example A. JAK2 LanthaScreen […] Binding Assay
JAK2 JH1 binding assay utilizes catalytic domain (JH1, amino acids 826-1132) of human JAK2 expressed as N-terminal FLAG-tagged, biotinylated protein in a baculovirus expression system (Carna Biosciences, Product #08-445-20N). The assay was conducted in black 384-well polystyrene plates in a final reaction volume of 20 μL. JAK2 JH1 (1.5 nM) was incubated with compounds (100 nL serially diluted in DMSO) in the presence of 50 nM fluorescent JAK2-JH1 tracer and 0.5 nM Streptavidin-Tb cryptate (Cisbio Part #610SATLB) in assay buffer (50 mM Tris, pH=7.5, 10 mM MgCl2, 0.01% Brij-35, 0.1% BSA, 1 mM EGTA, […] and 5 mM DTT). Non-specific binding was accessed in the presence of 2 mM ATP. After incubation for 2 hours at 25° C., LanthaScreen signals were read on a PHERAstar FS plate reader (BMG LABTECH).
Data was analyzed with IDBS XLfit and GraphPad Prism 5.0 software using a four parameter dose response curve to determine IC50 for each compound.

Experiment [2] concerns the target T2, pseudo-kinase domain (JH2, amino-acids 536-812) of human V617F mutant JAK2 (Homo sapiens, UniProt O60674, F794H/V617F/W659A/W777A).
T2 construct: pseudo-kinase domain (JH2, amino-acids 536-812 with 3 surface mutations W659A, W777A, F794H); His (C); purchased BPS Bioscience 79498; host or cells: baculovirus expression system
The experiment is described as follows: JAK2 LanthaScreen JH2-V617F Binding Assay. The settings on record: 50 nM tracer, read-out: JH2BINDING—V617F IC50. The method, then:
Example C. JAK2 LanthaScreen JH2-V617F Binding Assay
(§1) JAK2 JH2-V617F binding assay utilizes pseudo-kinase domain (JH2, amino-acids 536-812 with 3 surface mutations W659A, W777A, F794H) of human V617F mutant JAK2 expressed as C-terminal His-Avi-tagged, biotinylated protein in a baculovirus expression system (BPS Bioscience, Catalog #79498). The assay was conducted in black 384-well polystyrene plates in a final reaction volume of 20 μL. JAK2 JH2-V617F (0.26 nM) was incubated with compounds (100 nL serially diluted in DMSO) in the presence of 50 nM Fluorescent JAK2-JH2 Tracer (MedChem Express Catalog #HY-102055) and 0.25 nM Streptavidin-Tb cryptate (Cisbio Part #610SATLB) in assay buffer (50 mM Tris, pH=7.5, 10 mM MgCl2, 0.01% Brij-35, 0.1% BSA, 1 mM EGTA, 5% Glycerol and 5 mM DTT). Non-specific binding was accessed in the presence of 2 mM ATP. After incubation for 1 hour at 25° C., LanthaScreen signals were read on a PHERAstar FS plate reader (BMG LABTECH). Data was analyzed with IDBS XLfit and GraphPad Prism 5.0 software using a four parameter dose response curve to determine IC50 for each compound.
On the technique in general: Time-resolved FRET reads energy transfer from a long-lived donor to a nearby acceptor.

Experiment [3] concerns the target T3, pseudo-kinase domain (JH2, amino-acids 536-812) of human Wild Type JAK2 (Homo sapiens, UniProt O60674, F794H/W659A/W777A).
T3 construct: pseudo-kinase domain (JH2, amino-acids 536-812 with 3 surface mutations W659A, W777A, F794H); His (C); purchased BPS Bioscience 79463; host or cells: baculovirus expression system
The experiment in a line: JAK2 LanthaScreen JH2-WT Binding Assay. The settings on record: 50 nM tracer, read-out: JH2BIND_WT IC50. The method, then: Example B. JAK2 LanthaScreen JH2-WT Binding Assay
as §1, with “JH2-WT” for “JH2-V617F”, “Wild Type” for “V617F mutant”, “#79463).” for “#79498).”, “JH2-WT (0.145” for “JH2-V617F (0.26”

Experiment [4] has as its target T4, catalytic domain (JH1, amino acids 808-1132) of human JAK2 (Homo sapiens, UniProt O60674).
T4 construct: catalytic domain (JH1, amino acids 808-1132) of human JAK2; His (N); purchased BPS Bioscience 40450; host or cells: baculovirus expression system
The experiment in a line: JAK2 HTRF Enzyme Activity Assay. It is filed as biochemical. The note with it: ATP 30 μM; read-out: ENZ 30UMATP IC50. The method, then:
Example D. JAK2 HTRF Enzyme Activity Assay
JAK2 enzyme activity assays utilize catalytic domain (JH1, amino acids 808-1132) of human JAK2 expressed as N-terminal His-tagged protein in a baculovirus expression system (BPS Bioscience, Catalog #40450). The assays was conducted in black 384-well polystyrene plates in a final reaction volume of 20 μL. JAK2 (0.015 nM) was incubated with compounds (100 nL serially diluted in DMSO) in the presence of ATP (30 μM or 1 mM) and 500 nM Biotin-labeled EQEDEPEGDYFEWLE (SEQ ID NO.: 1) peptide (BioSource International, custom synthesis) in assay buffer (50 mM Tris, pH=7.5, 10 mM MgCl2, 0.01% Brij-35, 0.1% BSA, 1 mM EGTA, 5% Glycerol and 5 mM DTT) for 60 minutes at 25° C. The reactions were stopped by the addition of 10 μL of detection buffer (50 mM Tris, pH 7.8, 0.5 mg/mL BSA, 150 mM NaCl), supplemented with EDTA, LANCE Eu-W1024 anti-phosphotyrosine (PY20), (PerkinElmer, Catalog #AD0067) and Streptavidin SureLight APC (PerkinElmer Catalog #CR130-100), for a final concentration of 15 mM, 1.5 nM and 75 nM, respectively. HTRF signals were read after 30 minutes incubation at room temperature on a PHERAstar FS plate reader (BMG LABTECH). Data was analyzed with IDBS XLfit and GraphPad Prism 5.0 software using a four parameter dose response curve to determine IC50 for each compound. The compounds of the disclosure were tested in one or more of the assays described in Examples A-D, and the resulting data are shown in Table A.

T3 sequence (O60674 536-812 W659A/W777A/F794H): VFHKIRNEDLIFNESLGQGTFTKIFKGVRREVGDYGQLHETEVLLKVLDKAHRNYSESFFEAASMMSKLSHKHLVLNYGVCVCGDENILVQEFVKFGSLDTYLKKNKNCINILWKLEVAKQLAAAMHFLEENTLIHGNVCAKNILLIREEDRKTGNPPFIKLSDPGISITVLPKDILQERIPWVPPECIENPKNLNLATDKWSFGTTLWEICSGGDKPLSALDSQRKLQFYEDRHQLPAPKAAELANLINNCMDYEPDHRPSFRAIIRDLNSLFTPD
T2 sequence (O60674 536-812 V617F/W659A/W777A/F794H): as the sequence (O60674 536-812 W659A/W777A/F794H) above, with V82F counted along it
T4 sequence (O60674 808-1132): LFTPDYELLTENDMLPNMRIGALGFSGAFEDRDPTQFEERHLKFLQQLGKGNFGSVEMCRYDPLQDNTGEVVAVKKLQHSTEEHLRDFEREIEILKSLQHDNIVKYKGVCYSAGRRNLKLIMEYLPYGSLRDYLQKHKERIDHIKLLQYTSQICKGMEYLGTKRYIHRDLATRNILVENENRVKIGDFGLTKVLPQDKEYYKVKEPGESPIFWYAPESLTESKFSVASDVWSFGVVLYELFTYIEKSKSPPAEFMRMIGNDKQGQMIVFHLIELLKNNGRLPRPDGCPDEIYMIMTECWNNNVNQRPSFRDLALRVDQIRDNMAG
T1 sequence (O60674 826-1132): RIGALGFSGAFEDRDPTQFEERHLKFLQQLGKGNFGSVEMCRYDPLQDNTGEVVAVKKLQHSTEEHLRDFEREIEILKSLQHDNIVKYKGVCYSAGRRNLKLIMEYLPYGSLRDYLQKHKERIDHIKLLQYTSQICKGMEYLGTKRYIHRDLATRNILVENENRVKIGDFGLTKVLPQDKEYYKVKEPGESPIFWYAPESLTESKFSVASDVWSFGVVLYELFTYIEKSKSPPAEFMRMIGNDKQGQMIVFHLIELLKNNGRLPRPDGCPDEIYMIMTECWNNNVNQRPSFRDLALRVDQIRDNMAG

In the case of `[2H]C([2H])([2H])n1c(=O)n2c3c4c(c(-c5cn(C)nc5OC)[nH]c4ncc31)-c1ccc(cc1)OC/C=C/C[C@]1(NC(=O)C3CC3)CC[C@@H]2CC1` [Example 1, N-((3^1s,3^4s,E)-2^7-(3-Methoxy-1-methyl-1H-pyrazol-4-yl)-2^3-(methyl-d3)-2^2-oxo-2^1,2^2,2^3,2^6-tetrahydro-8-oxa-2(8,1)-imidazo[4,5-d]pyrrolo[2,3-b]pyridina-1(1,4)-benzena-3(1,4)-cyclohexanacyclooctaphan-5-en-3^4-yl)cyclopropanecarboxamide], the pIC50 (commonly the IC50 on a negative log10 scale, so that one unit is a factor of ten) is less than 6.00 in experiment [1], no less than 8.00 in experiment [2], no less than 8.00 in experiment [3] and less than 6.00 in experiment [4].

Consider “N-((3^1r,3^4s)-2^7-(3-Methoxy-1-methyl-1H-pyrazol-4-yl)-2^3-(methyl-d3)-2^2-oxo-2^1,2^2,2^3,2^6-tetrahydro-9-oxa-2(8,1)-imidazo[4,5-d]pyrrolo[2,3-b]pyridina-1(1,4)-benzena-3(1,4)-cyclohexanacyclononaphane-3^4-yl)cyclopropanecarboxamide [Example 4]”, for which the pIC50 in experiment [1] is less than 6.00; in experiment [2] it was no less than 8.00; in experiment [3], no less than 8.00; in experiment [4], less than 6.00.

In the case of `[2H]C([2H])([2H])n1c(=O)n2c3c4c(c(-c5cn(CC6CC6)nc5F)[nH]c4ncc31)-c1ccc(cc1)OCC/C=C/C[C@]1(NC(=O)[C@H]3C[C@H]3F)CC[C@@H]2CC1` [Example 14, (1R,2R)-N-((3^1S,3^4s,E)-2^7-(1-(cyclopropylmethyl)-3-fluoro-1H-pyrazol-4-yl)-2^3-(methyl-d3)-2^2-oxo-2^1,2^2,2^3,2^6-tetrahydro-9-oxa-2(8,1)-imidazo[4,5-d]pyrrolo[2,3-b]pyridina-1(1,4)-benzena-3(1,4)-cyclohexanacyclononaphan-5-en-3^4-yl)-2-fluorocyclopropane-1-carboxamide], the pIC50 is 6.00 to 6.30 and < 6.00 in experiment [1]; no less than 8.00 in experiment [2]; no less than 8.00 in experiment [3]; 6.00 to 6.30 and < 6.00 in experiment [4].

Take `[2H]C([2H])([2H])n1c(=O)n2c3c4c(c(-c5cn(CC)nc5F)[nH]c4ncc31)-c1ccc(cc1)OCCC(O)CC[C@]1(NC(=O)[C@H]3C[C@H]3F)CC[C@@H]2CC1` (stereo partly drawn) [Example 9, (1R,2R)—N-((3^1S,3^4s)-2^7-(1-Ethyl-3-fluoro-1H-pyrazol-4-yl)-6-hydroxy-2^3-(methyl-d)-2^2-oxo-2^1,2^2,2^3,2^6-tetrahydro-9-oxa-2(8,1)-imidazo[4,5-d]pyrrolo[2,3-b]pyridina-1(1,4)-benzena-3(1,4)-cyclohexanacyclononaphane-3^4-yl)-2-fluorocyclopropane-1-carboxamide]: the pIC50 is 6.00 to 6.30 in experiment [1], no less than 8.00 in experiment [2], no less than 8.00 in experiment [3] and less than 6.00 in experiment [4].

As for `[2H]C([2H])([2H])n1c(=O)n2c3c4c(c(-c5cn(CC)nc5F)[nH]c4ncc31)-c1ccc(cc1)OCC/C=C/C[C@]1(NC(=O)[C@H]3C[C@H]3F)CC[C@@H]2CC1` [Example 12, (1R,2R)-N-((3^1S,3^4s,E)-2^7-(1-ethyl-3-fluoro-1H-pyrazol-4-yl)-2^3-(methyl-d3)-2^2-oxo-2^1,2^2,2^3,2^6-tetrahydro-9-oxa-2(8,1)-imidazo[4,5-d]pyrrolo[2,3-b]pyridina-1(1,4)-benzena-3(1,4)-cyclohexanacyclononaphan-5-en-3^4-yl)-2-fluorocyclopropane-1-carboxamide], the pIC50 in experiment [1] was 6.00 to 6.30 and < 6.00; in experiment [2] it was no less than 8.00; in experiment [3], no less than 8.00; in experiment [4], 6.00 to 6.30 and < 6.00.

In the case of `[2H]C([2H])([2H])n1c(=O)n2c3c4c(c(-c5cnn(C)c5)[nH]c4ncc31)-c1ccc(cc1)OCC/C=C/C[C@]1(NC(=O)[C@H]3C[C@H]3F)CC[C@@H]2CC1` [Example 10, (1R,2R)-2-fluoro-N-((3^1S,3^4s,E)-2^3-(methyl-d3)-2^7-(1-methyl-1H-pyrazol-4-yl)-2^2-oxo-2^1,2^2,2^3,2^6-tetrahydro-9-oxa-2(8,1)-imidazo[4,5-d]pyrrolo[2,3-b]pyridina-1(1,4)-benzena-3(1,4)-cyclohexanacyclononaphan-5-en-3^4-yl)cyclopropane-1-carboxamide], the pIC50 in experiment [1] is 6.00 to 6.30; in experiment [2], no less than 8.00; in experiment [3], no less than 8.00; in experiment [4], 6.00 to 6.30.

In the case of `[2H]C([2H])([2H])n1c(=O)n2c3c4c(c(-c5cn(C)nc5OC)[nH]c4ncc31)-c1ccc(cc1)OCC/C=C/C[C@]1(NC(=O)C3CC3)CC[C@@H]2CC1` [Example 2, N-((3^1s,3^4s,E)-2^7-(3-Methoxy-1-methyl-1H-pyrazol-4-yl)-2^3-(methyl-d3)-2^2-oxo-2^1,2^2,2^3,2^6-tetrahydro-9-oxa-2(8,1)-imidazo[4,5-d]pyrrolo[2,3-b]pyridina-1(1,4)-benzena-3(1,4)-cyclohexanacyclononaphan-5-en-3^4-yl)cyclopropanecarboxamide], the pIC50 in experiment [1] is less than 6.00; in experiment [2], no less than 8.00; in experiment [3], no less than 8.00; in experiment [4] it was less than 6.00.
